According to ChEMBL document CHEMBL4725222, “Advances in the Development of Phosphodiesterase-4 Inhibitors” (J Med Chem, 2020):
One block for each molecule: values may come before it.

What was measured:
Phosphodiesterase 4 [1] = target: T1, Phosphodiesterase 4 (Homo sapiens, UniProt P27815+Q08499+Q07343+Q08493); experiment: Inhibition of human PDE4 using [3H]cAMP as substrate incubated for 30 mins; assay type: protein assay
[2] = target: T2, 3',5'-cyclic-AMP phosphodiesterase 4B (Homo sapiens, UniProt Q07343); experiment: Inhibition of recombinant human PDE4B2 preincubated for 30 mins followed by [3H]cyclic AMP addition and measured after 20 mins by radiometric assay
T2 sequence (Q07343 whole entry): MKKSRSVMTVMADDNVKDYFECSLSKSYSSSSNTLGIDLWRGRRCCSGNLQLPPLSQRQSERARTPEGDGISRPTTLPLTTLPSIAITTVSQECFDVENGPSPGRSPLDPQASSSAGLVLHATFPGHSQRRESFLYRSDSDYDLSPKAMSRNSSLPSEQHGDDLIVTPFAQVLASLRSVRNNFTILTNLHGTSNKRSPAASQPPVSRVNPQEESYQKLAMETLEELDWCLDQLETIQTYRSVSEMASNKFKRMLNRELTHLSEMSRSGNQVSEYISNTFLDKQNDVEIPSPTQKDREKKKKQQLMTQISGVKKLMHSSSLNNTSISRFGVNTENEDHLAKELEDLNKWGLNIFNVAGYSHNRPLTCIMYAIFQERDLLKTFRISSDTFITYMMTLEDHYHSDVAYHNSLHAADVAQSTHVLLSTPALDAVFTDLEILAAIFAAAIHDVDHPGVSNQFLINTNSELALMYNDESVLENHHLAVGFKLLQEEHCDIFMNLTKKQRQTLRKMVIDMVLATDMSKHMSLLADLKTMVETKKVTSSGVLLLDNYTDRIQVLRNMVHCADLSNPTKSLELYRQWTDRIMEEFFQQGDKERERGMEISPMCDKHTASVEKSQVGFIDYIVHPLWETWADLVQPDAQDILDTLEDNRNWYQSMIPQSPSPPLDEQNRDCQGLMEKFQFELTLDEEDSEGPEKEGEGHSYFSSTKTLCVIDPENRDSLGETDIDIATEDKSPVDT

[3] = target: T2, 3',5'-cyclic-AMP phosphodiesterase 4B; experiment: Inhibition of N-terminal GST tagged full length human PDE4B2 expressed in baculovirus infected Sf9 cell expression system using cAMP as substrate incubated for 60 mins by time-resolved fluorescence competitive immunoassay
[4] = target: 3',5'-cyclic-AMP phosphodiesterase 4C (Homo sapiens, UniProt Q08493); experiment: Inhibition of N-terminal GST tagged full length human PDE4C1 expressed in baculovirus infected Sf9 cell expression system using cAMP as substrate incubated for 60 mins by time-resolved fluorescence competitive immunoassay
Chain of 3',5'-cyclic-AMP phosphodiesterase 4C (Q08493 whole entry, the tested form may be a part): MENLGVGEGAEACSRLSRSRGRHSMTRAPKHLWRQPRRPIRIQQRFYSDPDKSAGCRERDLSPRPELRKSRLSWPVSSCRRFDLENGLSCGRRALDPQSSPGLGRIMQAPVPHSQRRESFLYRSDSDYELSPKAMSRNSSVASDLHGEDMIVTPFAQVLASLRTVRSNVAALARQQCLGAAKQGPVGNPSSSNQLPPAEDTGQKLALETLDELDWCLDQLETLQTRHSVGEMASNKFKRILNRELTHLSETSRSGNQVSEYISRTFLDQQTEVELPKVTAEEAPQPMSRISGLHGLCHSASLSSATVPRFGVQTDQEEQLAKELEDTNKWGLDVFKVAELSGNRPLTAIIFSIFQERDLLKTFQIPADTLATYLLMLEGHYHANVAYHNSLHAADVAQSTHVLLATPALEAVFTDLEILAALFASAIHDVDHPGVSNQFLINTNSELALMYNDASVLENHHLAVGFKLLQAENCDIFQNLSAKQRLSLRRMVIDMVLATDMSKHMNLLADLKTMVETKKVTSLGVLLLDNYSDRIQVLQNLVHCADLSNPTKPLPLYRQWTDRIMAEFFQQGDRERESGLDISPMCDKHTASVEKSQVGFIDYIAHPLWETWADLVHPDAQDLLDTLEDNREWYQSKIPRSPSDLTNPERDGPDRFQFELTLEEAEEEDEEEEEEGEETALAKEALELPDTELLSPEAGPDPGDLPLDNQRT

[5] = target: cGMP-inhibited 3',5'-cyclic phosphodiesterase 3A (Homo sapiens, UniProt Q14432); experiment: Inhibition of recombinant human PDE3A catalytic domain expressed in baculovirus infected sf9 cells using 3H-cAMP as substrate incubated for 20 mins by scintillation counting method
[6] = target: T2, 3',5'-cyclic-AMP phosphodiesterase 4B; experiment: Inhibition of recombinant human PDE4B catalytic domain expressed in baculovirus infected sf9 cells using 3H-cAMP as substrate incubated for 20 mins by scintillation counting method
[7] = target: T2, 3',5'-cyclic-AMP phosphodiesterase 4B; experiment: Inhibition of full length human PDE4B2 expressed in baculovirus infected Sf9 cell expression system preincubated for 10 mins followed by cAMP addition and measured after 30 mins by fluorescence method
[8] = target: T3, 3',5'-cyclic-AMP phosphodiesterase 4D (Homo sapiens, UniProt Q08499); experiment: Inhibition of full length human PDE4D2 preincubated for 10 mins followed by cAMP addition and measured after 30 mins by fluorescence method
T3 sequence (Q08499 whole entry): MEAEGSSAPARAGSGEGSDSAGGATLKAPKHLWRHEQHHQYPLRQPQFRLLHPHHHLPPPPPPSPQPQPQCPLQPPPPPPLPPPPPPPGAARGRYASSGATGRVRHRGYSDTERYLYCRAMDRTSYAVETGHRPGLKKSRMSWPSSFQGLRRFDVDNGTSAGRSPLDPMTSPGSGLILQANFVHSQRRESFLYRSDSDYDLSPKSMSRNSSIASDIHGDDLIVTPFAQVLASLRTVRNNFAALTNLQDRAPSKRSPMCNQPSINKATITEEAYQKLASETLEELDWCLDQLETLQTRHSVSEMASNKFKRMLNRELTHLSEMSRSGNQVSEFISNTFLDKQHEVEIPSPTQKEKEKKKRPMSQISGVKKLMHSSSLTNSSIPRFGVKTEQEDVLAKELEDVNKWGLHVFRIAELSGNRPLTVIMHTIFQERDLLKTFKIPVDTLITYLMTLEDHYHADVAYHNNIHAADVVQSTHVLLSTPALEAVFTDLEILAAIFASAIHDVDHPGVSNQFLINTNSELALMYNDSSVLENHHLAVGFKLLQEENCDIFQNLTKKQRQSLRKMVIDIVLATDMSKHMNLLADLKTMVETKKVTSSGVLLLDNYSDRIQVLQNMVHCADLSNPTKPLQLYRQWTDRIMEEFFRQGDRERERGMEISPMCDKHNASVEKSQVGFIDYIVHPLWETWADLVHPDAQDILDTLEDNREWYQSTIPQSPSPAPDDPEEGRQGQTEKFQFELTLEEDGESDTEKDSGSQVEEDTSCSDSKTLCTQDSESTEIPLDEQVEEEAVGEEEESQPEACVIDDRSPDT

[9] = Induction of FEV1 in COPD patient at 18 ug/kg administered as single dose; assay type: functional, Homo sapiens; conditions: dose 18 µg/kg
[10] = target: T3, 3',5'-cyclic-AMP phosphodiesterase 4D; experiment: Inhibition of PDE4D3 (unknown origin)
Phosphodiesterase 4 [11] = target: T1, Phosphodiesterase 4; experiment: Inhibition of PDE4 (unknown origin); assay type: protein assay
Phosphodiesterase 4 [12] = target: T1, Phosphodiesterase 4; experiment: Inhibition of PDE4 in human U937 cell lysate using cAMP as substrate by LANCE assay; assay type: subcellular; conditions: u-937
[13] = target: Muscarinic acetylcholine receptor M3 (Homo sapiens, UniProt P20309); experiment: Displacement of [3H]N -methylscopolamine from human muscarinic M3 receptor expressed in CHO-K1 cells incubated for 90 mins by scintillation counting method; assay type: cell-based
Chain of Muscarinic acetylcholine receptor M3 (P20309 whole entry, the tested form may be a part): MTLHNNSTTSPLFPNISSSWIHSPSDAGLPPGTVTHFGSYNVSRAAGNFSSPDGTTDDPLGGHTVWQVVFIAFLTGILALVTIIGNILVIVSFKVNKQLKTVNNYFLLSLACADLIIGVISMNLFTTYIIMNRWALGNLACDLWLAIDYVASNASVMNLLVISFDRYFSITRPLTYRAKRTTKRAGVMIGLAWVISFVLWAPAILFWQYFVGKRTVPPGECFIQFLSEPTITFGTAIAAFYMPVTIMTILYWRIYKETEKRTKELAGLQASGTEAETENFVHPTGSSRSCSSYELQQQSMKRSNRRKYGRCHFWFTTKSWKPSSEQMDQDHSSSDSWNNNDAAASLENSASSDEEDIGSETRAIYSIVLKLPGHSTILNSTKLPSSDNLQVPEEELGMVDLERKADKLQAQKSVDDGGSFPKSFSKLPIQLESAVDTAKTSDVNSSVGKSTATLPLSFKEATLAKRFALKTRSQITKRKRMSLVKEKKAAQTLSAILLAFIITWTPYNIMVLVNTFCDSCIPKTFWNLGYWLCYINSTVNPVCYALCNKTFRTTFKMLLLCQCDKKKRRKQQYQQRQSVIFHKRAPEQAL

[14] = target: T2, 3',5'-cyclic-AMP phosphodiesterase 4B; experiment: Inhibition of human brain PDE4B catalytic domain using cAMP as substrate incubated for 1 hr by luminescence method
[15] = target: T2, 3',5'-cyclic-AMP phosphodiesterase 4B; experiment: Inhibition of recombinant human PDE4B2 using cAMP as substrate preincubated for 5 mins followed by substrate addition and measured after 60 mins by luminescence method
Phosphodiesterase 4 [16] = target: T1, Phosphodiesterase 4; experiment: Inhibition of cytosolic PDE4 in human PMNL using [3H]cAMP as substrate by liquid scintillation counting method
[17] = Antiinflammatory activity in human nasal polyp cells assessed as reduction in TNFalpha release incubated for 30 mins followed by anti-IgE stimulation and measured after 18 hrs by ELISA; assay type: functional, cell-based; conditions: Nasal polyp cell
[18] = target: T3, 3',5'-cyclic-AMP phosphodiesterase 4D; experiment: Inhibition of PDE4D (unknown origin) at 2 uM relative to control
[19] = target: T4, 3',5'-cyclic-AMP phosphodiesterase 4A (Homo sapiens, UniProt P27815); experiment: Inhibition of PDE4A (unknown origin) at 2 uM relative to control
T4 sequence (P27815 whole entry): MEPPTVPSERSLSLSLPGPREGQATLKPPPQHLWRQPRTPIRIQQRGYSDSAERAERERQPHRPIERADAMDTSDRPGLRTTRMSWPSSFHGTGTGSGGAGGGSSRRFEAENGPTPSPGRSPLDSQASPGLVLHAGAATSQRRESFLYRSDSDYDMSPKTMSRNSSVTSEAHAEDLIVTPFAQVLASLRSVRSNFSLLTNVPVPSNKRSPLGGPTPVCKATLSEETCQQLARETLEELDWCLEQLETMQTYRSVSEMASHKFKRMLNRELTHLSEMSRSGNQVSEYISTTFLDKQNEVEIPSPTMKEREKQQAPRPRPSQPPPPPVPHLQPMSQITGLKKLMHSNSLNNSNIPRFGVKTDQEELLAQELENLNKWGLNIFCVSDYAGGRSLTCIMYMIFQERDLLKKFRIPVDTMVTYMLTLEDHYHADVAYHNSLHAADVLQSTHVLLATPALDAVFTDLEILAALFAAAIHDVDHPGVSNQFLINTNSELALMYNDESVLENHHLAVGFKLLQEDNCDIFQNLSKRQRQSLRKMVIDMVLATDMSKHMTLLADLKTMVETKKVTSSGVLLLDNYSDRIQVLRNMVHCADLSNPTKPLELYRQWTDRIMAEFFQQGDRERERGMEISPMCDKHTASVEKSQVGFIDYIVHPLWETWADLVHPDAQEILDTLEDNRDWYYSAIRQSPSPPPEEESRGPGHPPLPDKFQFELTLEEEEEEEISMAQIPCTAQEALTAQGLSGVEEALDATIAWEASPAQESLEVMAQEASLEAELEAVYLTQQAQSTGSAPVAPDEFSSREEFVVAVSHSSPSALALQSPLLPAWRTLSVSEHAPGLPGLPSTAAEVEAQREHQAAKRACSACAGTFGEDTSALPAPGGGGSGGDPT

[20] = target: T2, 3',5'-cyclic-AMP phosphodiesterase 4B; experiment: Inhibition of PDE4B (unknown origin) at 2 uM relative to control
[21] = target: T5, High affinity 3',5'-cyclic-AMP phosphodiesterase 7A (Homo sapiens, UniProt Q13946); experiment: Inhibition of human PDE7A at 2 uM relative to control
T5 sequence (Q13946 whole entry, the tested form may be a part): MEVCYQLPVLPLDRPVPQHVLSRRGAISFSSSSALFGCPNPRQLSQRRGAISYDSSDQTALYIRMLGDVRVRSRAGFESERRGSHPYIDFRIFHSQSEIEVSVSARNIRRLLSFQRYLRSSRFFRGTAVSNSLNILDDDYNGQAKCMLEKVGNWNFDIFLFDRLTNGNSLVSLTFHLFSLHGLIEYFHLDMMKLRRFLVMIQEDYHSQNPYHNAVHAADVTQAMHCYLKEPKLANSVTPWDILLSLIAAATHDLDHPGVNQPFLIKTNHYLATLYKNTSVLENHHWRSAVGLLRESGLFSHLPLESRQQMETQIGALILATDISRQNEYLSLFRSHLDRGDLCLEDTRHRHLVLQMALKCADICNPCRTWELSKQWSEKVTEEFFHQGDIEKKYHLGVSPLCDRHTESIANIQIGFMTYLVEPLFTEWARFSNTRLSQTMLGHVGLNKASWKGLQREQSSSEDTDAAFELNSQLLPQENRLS

[22] = target: T3, 3',5'-cyclic-AMP phosphodiesterase 4D; experiment: Inhibition of human PDE4D2 catalytic domain (86 to 413 residues) expressed in Escherichia coli BL21 cells using 3H-cGMP or 3H-cAMP as substrate by liquid scintillation counting method
[23] = target: T2, 3',5'-cyclic-AMP phosphodiesterase 4B; experiment: Inhibition of human PDE4B2 expressed in HEK293 cells using cAMP as substrate incubated for 45 to 60 mins by ELISA
[24] = target: T5, High affinity 3',5'-cyclic-AMP phosphodiesterase 7A; experiment: Inhibition of human PDE7A expressed in HEK293 cells using cAMP as substrate incubated for 60 mins by ELISA
[25] = Inhibition of recombinant human PDE4B2B (1 to 564 residues) expressed in Saccharomyces cerevisiae using cAMP as substrate preincubated for 30 mins followed by cAMP addition and measured after 60 mins by luminescence method
[26] = target: T2, 3',5'-cyclic-AMP phosphodiesterase 4B; experiment: Inhibition of recombinant human PDE4B expressed in Sf9 cells by IMAP phosphodiesterase assay
[27] = Inhibition of guinea-pig platelet derived PDE3; design: species or system Cavia porcellus
[28] = Inhibition of guinea-pig neutrophil derived PDE4; design: species or system Cavia porcellus
[29] = target: T3, 3',5'-cyclic-AMP phosphodiesterase 4D; experiment: Inhibition of PDE4D (unknown origin)
[30] = target: T2, 3',5'-cyclic-AMP phosphodiesterase 4B; experiment: Inhibition of PDE4B (unknown origin)
[31] = target: T4, 3',5'-cyclic-AMP phosphodiesterase 4A; experiment: Inhibition of PDE4A (unknown origin)
Phosphodiesterase 4 [32] = target: T1, Phosphodiesterase 4; experiment: Inhibition of human U937 cell derived PDE4 preincubated for 15 mins followed by […] and cAMP addition and measured after 20 mins by liquid scintillation counter; assay type: protein assay

SMILES: COc1cc2c(cc1OC)-c1c/c(=N\c3c(C)cc(C)cc3C)n(CCNC(N)=O)c(=O)n1CC2 [ENSIFENTRINE]
Activity [9]: >15%

SMILES: O=C(O[C@@H](Cc1c(Cl)c[n+]([O-])cc1Cl)c1ccc(OC(F)F)c(OCC2CC2)c1)C1CN(C(=O)c2ccc(COc3cccc(CN(C(=O)O[C@H]4CN5CCC4CC5)c4ccccc4)c3)cc2)C1
IC50 (Phosphodiesterase 4 [12]): 100 nM
IC50 [13]: 100 nM

SMILES: CC(C)Nc1nccc(-c2c(C3CC3)nn3ccccc23)n1
IC50 [14]: 1200 nM

SMILES: O=C(C(=O)c1cn(Cc2ccc(F)cc2)c2ccc(O)cc12)c1c(Cl)cncc1Cl
IC50 (Phosphodiesterase 4 [16]): 9.7 nM
EC50 [17]: 110 nM

SMILES: Cc1c(C(=O)Nc2ccc(F)cc2F)sc2ncnc(N3CCN(C)CC3)c12
inhibition [18]: 64%
inhibition [19]: 64%
inhibition [20]: 64%
inhibition [21]: 98%

SMILES: CCc1nc2c(cnn2CC)c(NC2CCCCC2)c1C1=NOC2(C1)CC(C1N=NN=N1)C2 (stereo unspecified)
IC50 [23]: 5 nM
IC50 [24]: 55 nM

SMILES: CCn1ncc2c(NC3CCOCC3)c(-c3nnc(Cc4sc(C)nc4C)o3)cnc21
pIC50 [25]: 8.8

SMILES: COc1cc2c(cc1OC)[C@@H]1CN(C)CC[C@@H]1N=C2c1ccc(NC(C)=O)cc1 [BENAFENTRINE]
IC50 [27]: 1740 nM
IC50 [28]: 1760 nM

SMILES: Cc1ccc(O)c(C(=O)N[C@H]2CC[C@@H](NC(=O)c3cc(F)cnc3Oc3ccc(F)c(F)c3)CC2)c1 [UK-500001]
IC50 [29]: 0.38 nM
IC50 [30]: 0.38 nM
IC50 [31]: 0.38 nM

SMILES: CCOC(=O)c1cnc2c(cnn2CC)c1NN=C(C)C [ETAZOLATE]
IC50 [10]: 390 nM

The remaining lines, values ahead:

IC50 (Phosphodiesterase 4 [1]): 12 nM
SMILES: COc1ccc(C2=CNC(=O)N(Cc3nc4cccc(C#N)c4o3)C2)cc1OC1CCCC1

IC50 [2]: 0.01 nM
SMILES: Cn1nc(C(=O)NC2CCC(NC(=O)c3cc(F)cnc3Oc3cccc(-c4ccc(CCCN5CCNCC5)cc4)c3)CC2)cc1C(F)(F)F (stereo unspecified)

IC50 [3]: 3 nM
IC50 [4]: 3 nM
SMILES: CCOc1cc([C@H](CS(C)(=O)=O)N2C(=O)c3cccc(NC(=O)OCCOCCOCCOCCOC)c3C2=O)ccc1OC

IC50 [5]: 360 nM
IC50 [6]: 42 nM
SMILES: COC1=CC=C(C2=NN(CCCCCOc3ccc(C4=NNC(=O)CC4C)cc3)C(=O)CC2C)C2CC(C(F)(F)F)=NN12 (stereo unspecified)

IC50 [3]: 3 nM
IC50 [4]: 3 nM
SMILES: CCOc1cc([C@H](CS(C)(=O)=O)N2C(=O)c3cccc(NC(=O)OCCOCCOCCOCCOCCOCCOC)c3C2=O)ccc1OC

IC50 [7]: 5.5 nM
IC50 [8]: 440 nM
SMILES: COc1ccc(-c2nc3c(c(Nc4ccc(CC(=O)O)cc4)n2)SCCC3)cc1F

IC50 [10]: 150 nM
SMILES: COc1ccc([C@H]2CNC(=O)[C@H](Cc3cccc(C)c3)C2)cc1OC1CCCC1 [HT-0712]

IC50 (Phosphodiesterase 4 [11]): 74 nM
SMILES: CCOc1ccc(-c2nc(-c3cccc(C(=O)O)n3)cs2)cc1OCC [TETOMILAST]

IC50 [15]: 5 nM
SMILES: COc1cccc(Nc2c(C(N)=O)ccc3c(C)cc(S(=O)(=O)c4cccc(C(=O)Nc5ccc(C#CCCCNC[C@@H](O)c6ccc(O)c7[nH]c(=O)ccc67)cc5)c4)cc23)c1

IC50 [22]: 11 nM
SMILES: COc1ccc([C@@]2(c3cccc(OC)c3)c3cc(O)ccc3-c3ccc(C=O)c(C#Cc4ccc(O)cc4)c32)cc1

IC50 [26]: 0.9 nM
SMILES: COc1ccc(C2=NN(CCCCCc3ccccc3)C(=O)CC2)cc1OC

IC50 (Phosphodiesterase 4 [11]): 0.6 nM
SMILES: O=C(NC1CC1)c1cn(-c2cccc(-c3ccc([C@@H]4C[C@H]4C(=O)O)c(F)c3)c2)c2ncccc2c1=O

IC50 (Phosphodiesterase 4 [32]): 0.4 nM
SMILES: COc1ccc(-c2ccc3nc(N)nc(N4CCN(C(=O)Nc5ccc(Cl)cc5)CC4)c3n2)cc1OC
